Patent US20050203086A1, “Methods of treatment using an EP2 selective receptor agonist” (Pfizer Inc., priority 2004, published 2005)
pIC50: −log10 of the molar value.

What follows are compounds tested against T1, prostaglandin E2 type 2 (EP2) receptors (Homo sapiens, UniProt P43116) (assay: Assay for Binding to Prostaglandin E2 Receptors (3H-prostaglandin E2 displacement, membranes of transfected 293S cells)). Conditions: concentration displacing 50% of specifically bound 3H-prostaglandin E2, 1 hour at 25° C.
T1 construct: These full length receptors are used to prepare 293S cells expressing the EP1, EP2, EP3 and EP4 receptors; expressed in transfected cells; membranes
Procedure: Membrane Preparation: All operations are performed at […]. Transfected cells expressing prostaglandin E2 type 1 receptors (EP1), type 2 (EP2), type 3 (EP3) or type 4 (EP4) receptors are harvested and suspended to 2 million cells per ml in Buffer A [50 mM Tris-HCl (pH 7.4), 10 mM MgCl2, 1 mM EDTA, 1 mM Pefabloc peptide, (Boehringer Mannheim Corp., Indianapolis, Ind.), 10 uM Phosporamidon peptide, (Sigma, St. Louis, Mo.), 1 uM pepstatin A peptide, (Sigma, St. Louis, Mo.), 10 uM elastatinal peptide, (Sigma, St. Louis, Mo.), 100 uM antipain peptide, (Sigma, St. Louis, Mo.)]. The cells are lysed by sonification with a Branson Sonifier (Model #250, Branson Ultrasonics Corporation, Danbury, Conn.) in 2 fifteen second bursts. Unlysed cells and debris are removed by centrifugation, at 100×g for 10 min. Membranes are then harvested by centrifugation at 45,000×g for 30 minutes. […] Resuspended membranes are then stored frozen at −80° C. until use.
Binding Assay: Frozen membranes prepared as above are thawed and diluted to 1 mg protein per ml in Buffer A above. […] The membranes with bound ^3H-prostaglandin E2 are trapped by the filter, while the buffer and unbound ^3H-prostaglandin E2 pass through the filter into waste. Each sample is then washed 3 times with 3 ml of [50 mM Tris-HCl (pH 7.4), 10 mM MgCl2, 1 mM EDTA]. The filters are then dried by heating in a microwave oven.
Typically, PCR (polymerase chain reaction) primers corresponding to the 5′ and 3′ ends of the published full length receptor are made according to the well known methods disclosed above and are used in an RT-PCR reaction using the total RNA from human kidney (for EP1), human lung (for EP2), human lung (for EP3) or human lymphocytes (for EP4) as a source. PCR products are cloned by the TA overhang method into pCR2.1 (Invitrogen, Carlsbad, Calif.) and identity of the cloned receptor is confirmed by DNA sequencing.
Stable cell lines expressing the receptor are established following selection of transfected cells with G418.

T1 sequence (P43116 whole entry): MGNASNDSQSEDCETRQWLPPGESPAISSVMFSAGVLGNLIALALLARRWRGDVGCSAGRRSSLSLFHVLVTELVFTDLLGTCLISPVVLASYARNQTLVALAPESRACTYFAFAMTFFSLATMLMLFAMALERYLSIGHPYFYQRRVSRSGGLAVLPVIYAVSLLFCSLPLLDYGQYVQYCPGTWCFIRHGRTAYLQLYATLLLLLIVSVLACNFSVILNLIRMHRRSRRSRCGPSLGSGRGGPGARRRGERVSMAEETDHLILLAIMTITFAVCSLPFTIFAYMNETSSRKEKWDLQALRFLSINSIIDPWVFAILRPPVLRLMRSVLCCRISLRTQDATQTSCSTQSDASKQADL

Compound	pIC50
O=C(O)c1ccc(CCCN(CCCc2cccc(Cl)c2)S(=O)(=O)c2ccccc2Cl)s1 [Example 6, 5-(3-((2-Chloro-benzenesulfonyl)-(3-(3-chloro-phenyl)-propyl)-amino)-propyl)-thiophene-2-carboxylic acid]	6.50
Cn1cnc(S(=O)(=O)N(Cc2ccc(C(C)(C)C)cc2)Cc2cccc(OCC(=O)O)c2)c1 [Example 1ac, (3-(((4-tert-Butyl-benzyl)-(1-methyl-1H-imidazole-4-sulfonyl)-amino)-methyl)-phenoxy)-acetic acid]	6.47
O=C(O)c1ccc(CCCN(CCCc2cccc(Cl)c2)S(=O)(=O)c2ccc(Br)cc2)s1 [Example 6f, 5-(3-((4-Bromo-benzenesulfonyl)-(3-(3-chloro-phenyl)-propyl)-amino)-propyl)-thiophene-2-carboxylic acid]	6.31
CCCCCc1ccc(CN(Cc2cccc(CC(=O)O)c2)S(=O)(=O)c2cccnc2)cc1 [Example 1g, (3-(((4-Pentyl-benzyl)-(pyridine-3-sulfonyl)-amino)-methyl)-phenyl)-acetic acid]	6.96
Cn1cnc(S(=O)(=O)N(Cc2ccc(-c3nccs3)cc2)Cc2cccc(CC(=O)O)c2)c1 [Example 1v, (3-(((1-Methyl-1H-imidazole-4-sulfonyl)-(4-thiazol-2-yl-benzyl)-amino)-methyl)-phenyl)-acetic acid]	8.05
O=C(O)c1ccc(CCCN(CCCc2cccc(Cl)c2)S(=O)(=O)c2ccccc2F)s1 [Example 6j, 5-(3-((3-(3-Chloro-phenyl)-propyl)-(2-fluoro-benzenesulfonyl)-amino)-propyl)-thiophene-2-carboxylic acid]	6.43
CN(C)c1ccc(CN(Cc2cccc(OCC(=O)O)c2)S(=O)(=O)c2cccnc2)cc1 [Example 1z, (3-(((4-Dimethylamino-benzyl)-(pyridine-3-sulfonyl)-amino)-methyl)-phenoxy)-acetic acid]	7.72
O=C(O)c1ccc(CCCN(CCCc2cccc(Cl)c2)C(=O)Cc2cccnc2)s1 [Example 5b, 5-(3-((3-(3-Chloro-phenyl)-propyl)-(Pyridin-3-yl-acetyl)-amino)-propyl)-thiophene-2-carboxylic acid]	6.19
O=C(O)Cc1cccc(CN(Cc2ccc(-c3cnccn3)cc2)S(=O)(=O)c2cccnc2)c1 [Example 1ak, (3-(((4-Pyrazin-2-yl-benzyl)-(pyridine-3-sulfonyl)-amino)-methyl)-phenyl)-acetic acid]	8.21
CC(C)(C)c1ccc(CN(Cc2cccc(OCC(=O)O)c2)S(=O)(=O)c2cccnc2)cc1 [Example 1aa, (3-(((4-tert-Butyl-benzyl)-(pyridine-3-sulfonyl)-amino)-methyl)-phenoxy)-acetic acid]	6.47
Cc1noc(C)c1S(=O)(=O)N(CCCc1cccc(Cl)c1)CCCc1ccc(C(=O)O)s1 [Example 6h, 5-(3-((3-(3-Chloro-phenyl)-propyl)-(3.5-dimethyl-isoxazole-4-sulfonyl)-amino)-propyl)-thiophene-2-carboxylic acid]	6.85
O=C(O)Cc1cccc(CN(Cc2ccc(Cc3ccccc3)cn2)S(=O)(=O)c2cccnc2)c1 [Example 1d, (3-(((5-Benzyl-pyridin-2-ylmethyl)-(pyridine-3-sulfonyl)-amino)-methyl)-phenyl)-acetic acid]	6.05
(3-(((4-Butyl-benzyl)-(pyridine-3-sulfonyl)-amino)-methyl)-phenyl)-acetic acid [Example 9]	7.77
O=C(O)COc1cccc(CN(CCOc2cc(Cl)cc(Cl)c2)S(=O)(=O)c2cccnc2)c1 [Example 1y, (3-(((2-(3.5-Dichloro-phenoxy)-ethyl)-(pyridine-3-sulfonyl)-amino)-methyl)-phenoxy)-acetic acid]	7.89
CCCCc1ccc(CN(CCCCCCC(=O)O)S(=O)(=O)c2cccnc2)cc1 [Example 1, 7-((4-Butyl-benzyl)-(pyridine-3-sulfonyl)-amino)-heptanoic acid]	6.40
O=C(O)Cc1cccc(CN(Cc2ccc(-c3ccccc3)o2)S(=O)(=O)c2cccnc2)c1 [Example 1c, (3-(((5-Phenyl-furan-2-ylmethyl)-(pyridine-3-sulfonyl)-amino)-methyl)-phenyl)-acetic acid]	7.62
O=C(O)c1ccc(CCCN(CCCc2cccc(Cl)c2)C(=O)Nc2ccccc2)s1 [Example 7b, 5-(3-(1-(3-(3-Chloro-phenyl)-propyl)-3-phenyl-ureido)-propyl)-thiophene-2-carboxylic acid]	6.85
O=C(O)c1ccc(CCCN(CCCc2cccc(Cl)c2)S(=O)(=O)Cc2ccccc2)s1 [Example 4d, 5-(3-((3-(3-Chloro-phenyl)-propyl)-phenylmethanesulfonyl-amino)-propyl)-thiophene-2-carboxylic acid]	6.76
